Laboratory results published in doi:10.1101/2020.10.13.337410v3, “Agonist efficiency from concentration-response curves: structural implications and applications” (biorxiv, 2021).

Molecular target: T1, adult-type mouse AChR (α1-GFP, β, δ, ε), whole-cell (Mus musculus, UniProt P02716+P04756+P20782)
T1 construct: gene Chrna1; alpha1 with GFP encoded between M3 and M4; transient expression in HEK293, GFP-sorted cells; pentamer; no background mutations; with Acetylcholine receptor subunit beta
Test: automated whole-cell patch clamp (IonFlux […]), concentration-response
Format: cell-based

T1 sequence (P20782 21-493): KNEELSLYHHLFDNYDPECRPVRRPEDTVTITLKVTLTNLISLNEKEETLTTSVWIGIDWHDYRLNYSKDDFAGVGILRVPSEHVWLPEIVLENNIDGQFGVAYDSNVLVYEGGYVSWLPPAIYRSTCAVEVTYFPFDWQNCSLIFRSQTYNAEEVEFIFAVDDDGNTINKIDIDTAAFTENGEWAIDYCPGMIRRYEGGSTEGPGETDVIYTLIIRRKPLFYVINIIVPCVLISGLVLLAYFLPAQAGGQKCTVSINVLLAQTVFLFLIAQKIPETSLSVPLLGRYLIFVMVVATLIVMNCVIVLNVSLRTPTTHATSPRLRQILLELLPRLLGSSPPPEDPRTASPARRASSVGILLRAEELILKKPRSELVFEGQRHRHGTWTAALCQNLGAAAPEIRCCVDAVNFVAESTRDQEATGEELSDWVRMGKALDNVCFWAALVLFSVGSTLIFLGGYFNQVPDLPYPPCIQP
T1 sequence (P02716 25-520): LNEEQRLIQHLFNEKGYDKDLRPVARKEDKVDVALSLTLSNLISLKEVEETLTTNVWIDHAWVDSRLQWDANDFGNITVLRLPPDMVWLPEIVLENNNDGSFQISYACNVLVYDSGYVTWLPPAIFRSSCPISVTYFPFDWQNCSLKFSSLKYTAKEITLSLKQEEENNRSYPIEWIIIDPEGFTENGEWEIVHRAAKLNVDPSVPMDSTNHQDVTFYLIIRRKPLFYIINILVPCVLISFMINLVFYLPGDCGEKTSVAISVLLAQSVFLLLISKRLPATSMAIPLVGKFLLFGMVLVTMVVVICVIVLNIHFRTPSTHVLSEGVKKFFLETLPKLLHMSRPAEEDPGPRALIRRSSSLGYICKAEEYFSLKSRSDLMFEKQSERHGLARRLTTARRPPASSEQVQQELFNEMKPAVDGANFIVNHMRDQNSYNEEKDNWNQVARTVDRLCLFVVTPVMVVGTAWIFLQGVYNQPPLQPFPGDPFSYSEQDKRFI
T1 sequence (P09690 24-501, further chain): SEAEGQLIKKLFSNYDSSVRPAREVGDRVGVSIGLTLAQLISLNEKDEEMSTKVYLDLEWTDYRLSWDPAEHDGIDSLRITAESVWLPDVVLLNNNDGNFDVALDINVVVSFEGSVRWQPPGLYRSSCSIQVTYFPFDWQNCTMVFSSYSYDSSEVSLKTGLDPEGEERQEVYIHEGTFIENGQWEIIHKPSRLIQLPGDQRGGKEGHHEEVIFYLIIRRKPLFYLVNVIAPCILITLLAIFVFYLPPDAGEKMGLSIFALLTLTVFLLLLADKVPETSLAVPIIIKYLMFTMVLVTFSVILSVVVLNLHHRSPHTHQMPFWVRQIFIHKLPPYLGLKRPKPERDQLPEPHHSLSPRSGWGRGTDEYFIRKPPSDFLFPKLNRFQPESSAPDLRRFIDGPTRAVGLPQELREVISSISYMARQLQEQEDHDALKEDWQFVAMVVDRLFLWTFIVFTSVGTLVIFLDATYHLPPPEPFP
T1 sequence (P04756 21-457): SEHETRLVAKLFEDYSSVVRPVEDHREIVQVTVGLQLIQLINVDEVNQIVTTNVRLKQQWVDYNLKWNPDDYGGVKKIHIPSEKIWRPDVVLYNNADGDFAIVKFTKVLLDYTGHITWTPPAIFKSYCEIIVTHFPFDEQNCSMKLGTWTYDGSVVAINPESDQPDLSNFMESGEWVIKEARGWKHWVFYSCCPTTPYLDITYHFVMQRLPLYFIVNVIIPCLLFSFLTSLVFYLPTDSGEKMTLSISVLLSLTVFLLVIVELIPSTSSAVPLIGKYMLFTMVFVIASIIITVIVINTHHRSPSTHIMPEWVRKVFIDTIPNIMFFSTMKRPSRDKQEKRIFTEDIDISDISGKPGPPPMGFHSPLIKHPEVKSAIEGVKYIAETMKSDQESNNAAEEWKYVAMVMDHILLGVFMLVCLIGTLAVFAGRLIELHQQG

Row | SMILES | EC50 [µM]
1 | C[N+](C)(C)CCOC(N)=O [CCh] | 72.2 ± 11
2 | C[N+](C)(C)C [TMA] | 843 ± 110
